Legend:
Mus musculus [1] = assay: Anticonvulsant activity in Swiss albino mouse assessed as decrease in time of subcutaneous PTZ-induced clonic hind leg extension administered as ip at equimolar dose of diazepam 30 mins before subcutaneous PTZ challenge measured after 0.5 hrs (reference value: 76.80 +/- 2.41 sec); type: functional, Hindlimb
Mus musculus [2] = assay: Anticonvulsant activity in Swiss albino mouse assessed as decrease in time of maximum electroshock-induced tonic hind leg extension administered as ip at equimolar dose of phenytoin 30 mins before maximum electroshock seizure stimulation measured after 0.5 hrs (reference value: 15.40 +/- 0.50 sec); type: functional, Hindlimb
Mus musculus [3] = assay: Hepatotoxicity in Swiss albino mouse assessed as change in liver SGPT level at 25 mg/kg/day for 15 days; type: toxicity, organism-based; settings: in vivo, 360 h
Mus musculus [4] = assay: Hepatotoxicity in Swiss albino mouse assessed as change in liver SGOT level at 25 mg/kg/day for 15 days; type: toxicity, organism-based; settings: in vivo, 360 h
Mus musculus [5] = assay: Hepatotoxicity in Swiss albino mouse assessed as change in liver total protein level assessed per 100 ml at 25 mg/kg/day for 15 days; type: toxicity, organism-based; settings: in vivo, 360 h
Mus musculus [6] = species on record: Mus musculus; assay: Neurotoxicity in Swiss albino mouse by rotarod test; type: toxicity, organism-based; settings: in vivo
Mus musculus [7] = assay: Hepatotoxicity in Swiss albino mouse assessed as change in liver alkaline phosphatase level at 25 mg/kg/day for 15 days; type: toxicity, organism-based; settings: in vivo, 360 h
Mus musculus [8] = assay: Anticonvulsant activity in ip dosed Swiss albino mouse assessed as decrease in time of subcutaneous PTZ-induced clonic hind leg extension administered 30 mins before subcutaneous PTZ challenge measured after 0.5 hrs (reference value: 76.80 +/- 2.41 sec); type: functional, Hindlimb

SMILES | Time (Mus musculus [1]) [s] | Time (Mus musculus [2]) [s] | Activity (Mus musculus [3]) | Activity (Mus musculus [4]) | Activity (Mus musculus [5]) [g] | Activity (Mus musculus [6]) | Activity (Mus musculus [7]) | Time (Mus musculus [8]) [s]
CCc1nc2ccc(Br)cc2c(=O)n1-c1nc2c(C)cc(C)cc2s1 | 91.6 | 11.8 |  |  |  |  |  | 
CCc1nc2ccc(Br)cc2c(=O)n1-c1nc2cc(OC)ccc2s1 | 89.8 | 10.6 |  |  |  |  |  | 
CCc1nc2ccc(Br)cc2c(=O)n1-c1nc2ccc([N+](=O)[O-])cc2s1 | 91 | 12 |  |  |  |  |  | 
CCOc1cccc2sc(-n3c(CC)nc4ccc(Br)cc4c3=O)nc12 | 98 | 10.1 | Non-toxic | Non-toxic | 1.82 | Non-toxic | Non-toxic | 
CCc1nc2ccc(Br)cc2c(=O)n1-c1nc2cc(C)ccc2s1 | 93.2 | 11.2 |  |  |  |  |  | 
CCc1nc2ccc(Br)cc2c(=O)n1-c1nc2c(C)cccc2s1 | 95.23 | 10.5 |  |  |  |  |  | 
CCc1nc2ccc(Br)cc2c(=O)n1-c1nc2cc(Cl)ccc2s1 | 93 | 8.6 | Non-toxic | Non-toxic | 1.75 | Non-toxic | Non-toxic | 
CCc1nc2ccc(Br)cc2c(=O)n1-c1nc2ccc(OC)cc2s1 | 99.45 | 9.7 | Non-toxic | Non-toxic | 1.78 | Non-toxic | Non-toxic | 
CCc1nc2ccc(Br)cc2c(=O)n1-c1nc2ccccc2s1 | 91.6 | 7.4 | Non-toxic | Non-toxic | 1.82 | Non-toxic | Non-toxic | 
CN1C(=O)CN=C(c2ccccc2)c2cc(Cl)ccc21 [DIAZEPAM] |  |  |  |  |  | Non-toxic |  | 111.6
CCc1nc2ccc(Br)cc2c(=O)n1-c1nc2c(OC)cccc2s1 | 98.12 | 10.2 | Non-toxic | Non-toxic | 1.82 | Non-toxic | Non-toxic | 
